Target: T1, PPD17 (omega-3 desaturase; delta-17 desaturase) (Phytophthora nicotianae, UniProt V9F8I2)
T1 construct: gene F443_08426; full length, 361 residues, codon-optimized oPPD17 in pYES2/NT C (His-tagged), expressed in S. cerevisiae INVSc1; 4 predicted TM domains; C-terminal KTKST; His boxes HDAGH, HRHHH, HQIHH
T1 sequence (V9F8I2 1-361): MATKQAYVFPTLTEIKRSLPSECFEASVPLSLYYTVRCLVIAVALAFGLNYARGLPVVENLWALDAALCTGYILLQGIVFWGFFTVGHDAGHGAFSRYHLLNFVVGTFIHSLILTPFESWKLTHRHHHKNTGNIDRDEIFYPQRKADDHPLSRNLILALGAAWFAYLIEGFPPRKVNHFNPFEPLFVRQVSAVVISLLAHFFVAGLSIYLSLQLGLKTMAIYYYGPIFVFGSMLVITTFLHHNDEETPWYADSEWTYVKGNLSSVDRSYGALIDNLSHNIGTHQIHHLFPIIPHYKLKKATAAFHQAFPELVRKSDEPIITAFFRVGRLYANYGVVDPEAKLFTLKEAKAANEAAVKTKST
Test: fatty acid feeding of yeast expressing PPD17, FAME analysis by GC-MS
Assay type: cell-based
Details: free acid fed to culture, 0.2 mM, 12 °C and 28 °C; product eicosatetraenoic acid

CCCCC/C=C\C/C=C\C/C=C\CCCCCCC(=O)O [DGLA, dihomo-gamma-linolenic acid]
fatty acid feeding of yeast expressing PPD17, FAME analysis by GC-MS: PPD17 had stronger substrate preference for C20-PUFA substrate AA and DGLA

From paper PMC6102326, “Characterization of an Omega-3 Desaturase From Phytophthora parasitica and Application for Eicosapentaenoic Acid Production in Mortierella alpina” (Frontiers in Microbiology, 2018)
